Target: T1, 3-phosphoinositide-dependent protein kinase 1 [50-359] (Homo sapiens, UniProt O15530)
T1 construct: 50-359
T1 sequence (O15530 whole entry): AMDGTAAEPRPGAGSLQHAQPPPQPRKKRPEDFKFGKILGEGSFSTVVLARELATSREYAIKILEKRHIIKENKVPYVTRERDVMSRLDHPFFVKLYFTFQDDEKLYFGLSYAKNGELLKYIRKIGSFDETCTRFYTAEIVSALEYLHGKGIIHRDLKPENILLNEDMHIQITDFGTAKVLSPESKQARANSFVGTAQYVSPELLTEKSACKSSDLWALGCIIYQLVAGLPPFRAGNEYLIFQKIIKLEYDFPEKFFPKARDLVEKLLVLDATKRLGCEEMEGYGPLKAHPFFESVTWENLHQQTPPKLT
Test: Isothermal titration calorimetry
Conditions: pH 7.4
Description: For the titrations of PDK1 with adenosine, the protein and the compound were prepared in 50 mMTris-HCl (pH 7.4), 200 mM NaCl, 1 mM DTT and 1% v/v DMSO. For the titration of PDK1 with PS653 theprotein and the compound were prepared in 50 mM Tris-HCl (pH 7.4), 200 mM NaCl, 1 mM DTT and 5% v/vDMSO. […] The titrationof PDK1 with adenosine was performed at 25 C, and the titration of PDK1 with PS653 was made at 37 C. Rawcalorimetric data were corrected for heats of dilution. Binding stoichiometries, enthalpy values and Kd valueswere determined by fitting corrected data to

Kd: 1250 nM
Structure (SMILES): O=C1c2ccccc2-c2n[nH]c3cccc1c23 [SP-600125]

Reference: BindingDB's records for doi:10.1016/j.chembiol.2016.06.017 (Universitätsklinikum Frankfurt, 2016)
